Results as given in patent US20170079281A1, “CITRUS-BASED ANTIMICROBIAL COMPOSITION” (priority 2015, published 2017).

Legend:
S. cerevisiae ISI107 = assay: MIC microtiter plate assay in filtered apple juice; type: cell-based, Saccharomyces cerevisiae; details: filtered apple juice (pH 3.59), 25° C., aerobically
[1] = has been reported; cited from earlier work
Escherichia coli EDL 933 = assay: MIC by broth dilution method in 96-well microplates; type: cell-based; details: Mueller Hinton Broth, 24 h
[2] = system: Salmonella typhimurium SL1344; assay: as above; type: cell-based; details: Mueller Hinton Broth, 24 h
[3] = system: Listeria monocytogenes HPB 2812; assay: as above; type: cell-based; details: Mueller Hinton Broth, 24 h
[4] = system: Staphylococcus aureus ATCC 25923; assay: as above; type: cell-based; details: Mueller Hinton Broth, 24 h
Bacillus cereus L8PQ = assay: as above; type: cell-based; details: Mueller Hinton Broth, 24 h
[5] = system: Aspergillus niger ATCC 1015; assay: as above; type: cell-based; details: Mueller Hinton Broth, 24 h
[6] = system: Xeromyces bisporus ATCC MY-36964; assay: as above; type: cell-based; details: Mueller Hinton Broth, 24 h
[7] = system: Zygosaccharomyces rouxii ATCC R 995; assay: as above; type: cell-based; details: Mueller Hinton Broth, 24 h
[8] = system: total aerobic microflora (TAM); assay: Accelerated shelf-life testing of strawberry fillings and puddings; type: cell-based; details: 0.2% by mass Composition A or 0.1% by mass sodium benzoate; 28° C., 70% RH, 35 days (Month 1 to Month 15)
Procedure: (§1) The shelf-life of the strawberry fillings and strawberry flavor puddings, containing 0.2% by mass Composition A or 0.1% by mass sodium benzoate, […], from a procedure by Kilcast and Persis (2000) by determining the concentration of total aerobic microflora (TAM) and yeast/molds (YM). […]; Sheldon Manufacturing Inc., Cornelius, Oreg., USA), in order to simulate an accelerated maturity of the products. A storage time of 2 weeks in these conditions corresponds to 6 months in normal conditions (20° C., 45% RH). […] Samples were homogenized for 2 min at 260 rpm in 50 mL of sterile peptone water (0.1% w/v) with a Lab-Blender™ 400 stomacher (Laboratory Equipment, London, UK). From each homogenate, serial dilutions were prepared, plated onto surface of Plate Count Agar (PCA) (Difco, BD) for TAM enumeration or PDA for YM enumeration and incubated for 24-48 h at 37° C. (resp. 28° C.) before counting.

yeast/molds (YM) = assay: as above; type: cell-based
Procedure: as §1

CCCCCCCCCCCC(=O)N[C@@H](CCCN=C(N)N)C(=O)OCC [lauric arginate, ethyl lauroyl arginate]
MIC (S. cerevisiae ISI107): about 156 ppm | Resistance to thermal processing [1]: resistant to all types of thermal processing including boiling

O=C([O-])c1ccccc1.[Na+] [Sodium benzoate, sodium benzoate]
MIC (Escherichia coli EDL 933): 10 730 ppm | MIC [2]: 5 185 ppm | MIC [3]: 5 185 ppm | MIC [4]: 5 185 ppm | MIC (Bacillus cereus L8PQ): 5 185 ppm | MIC [5]: 648 ppm | MIC [6]: 81 ppm | MIC [7]: 162 ppm | TAM concentration in strawberry fillings [8]: total inhibition | Yeast/Mold (Y/M) concentration in strawberry flavor puddings (yeast/molds (YM); 0.2% Composition A or 0.1% sodium benzoate, after 35 days accelerated storage, also no growth in control, data not shown): no growth | Yeast/Mold (Y/M) concentration in strawberry fillings (yeast/molds (YM); 0.2% by mass Composition A or 0.1% by mass sodium benzoate, 28° C., 70% RH, 35 days (Month 1 to Month 15)): total inhibition
